Test results taken from patent US20200055821A1, “METHOD FOR MANUFACTURING DIASTEREOMER OF CITRIC ACID DERIVATIVE” (OTSUKA PHARMACEUTICAL FACTORY, INC., priority 2017, published 2020).

Tests used:
[1] = hygroscopicity and handling of the solid; format: physicochemical; settings: when concentrated and solidified / powder
From the text: On the other hand, the crystal of the compound A was a non-hygroscopic powder, which was easily handled.

[2] = stability of compound A in aqueous solution by pH (hydrolysis seen by HPLC); format: physicochemical
From the text: The difficult point when the crystal of the compound A is obtained by the present method is in removing citric acid from the aqueous solution containing the compound A and citric acid in an acidic condition. Since the compound A is unstable in a neutral to alkaline (pH of 5 or higher) aqueous solution, in order to suppress decomposition of the compound A, maintenance of an acidic condition is important. Therefore, the aqueous solution containing the compound A and citric acid and having a pH of 2.0 or lower to be used in the step (a) may be an aqueous solution whose pH is preferably 0.6 to 1.8 and most preferably 1.0 to 1.6. […]
The purified precipitate obtained at a pH of 3.6 by the above operation and the purified precipitate obtained at a pH of 6.0 thereby were each evaluated by qualitative analysis using HPLC (FIG. 5, FIG. 6). The each precipitate (about 10 mg) was dissolved in purified water (about 1 mL), diluted 40-fold with a 10 mM perchloric acid solution being a mobile phase of the qualitative analysis using HPLC, and analyzed (by being diluted with the 10 mM perchloric acid solution, which was an acidic solvent, the Ca salts of the compound A were converted to the compound A, thus the detection was made as the compound A.). […]

[3] = solubility in isopropanol-water mixed solvent; format: physicochemical; settings: mixed solvent of isopropanol and water, ratio of isopropanol 40% or higher
Method: A highly purified crystalline powder of the compound A was obtained by repeating three times the same operation as in the recrystallization described in the paragraph of Example 3. 100 mL of purified water (Japanese Pharmacopoeia purified water) was added to 10 g of the crystalline powder, which was then dissolved by heating the resultant in a water bath at 50° C. The resultant solution was filtered by using a membrane filter (Merck Millipore) of 0.22 μm in pore size, and the resultant filtrate was collected. The filtrate was concentrated by using an evaporator on a water bath at 40° C. to thereby collect the resultant as an about 50 ml of a solution. This solution was concentrated and […] to thereby become a solution in a supersaturated state. The solution as it was in the heated state (40° C.) was dispensed in test tubes with a lid so as to have solvent ratios indicated in the following Table (Table 4) to thereby produce solutions having mixed solvents. Specifically, by adding 100 μL of organic solvents of methanol, ethanol, acetone and the like to 400 μL of the supersaturated solution, there was made a solution having a water ratio in the mixed solvent of 80%. […]

liver disorder = settings: known active substance; cited from earlier work

Row | hygroscopicity [1] | hydrolysis of the imide structure ([2]; alkali added for the pH to be 6.0, 80% ethanol precipitation, HPLC) | stability in aqueous solution ([2]; neutral to alkaline (pH of 5 or higher) aqueous solution) | solubility [3] | Compound | inhibitory effect against liver disorder (liver disorder)
1 | non-hygroscopic |  |  |  | O=C(O)CC(C(=O)O)N1C(=O)C[C@@](O)(CC(=O)O)C1=O (stereo partly drawn) [crystal of the compound A] | 
2 |  | hydrolysis of the compound A progressed | unstable | decreased | O=C(O)CC(C(=O)O)N1C(=O)CC(O)(CC(=O)O)C1=O (stereo not drawn) [compound A] | inhibitory effect against liver disorder
3 | had hygroscopicity |  |  |  | O=C(O)C[C@@H](C(=O)O)N1C(=O)C[C@@](O)(CC(=O)O)C1=O [noncrystal of the compound A] | 
